The source made the active and inactive calls.
Assays:
Assay type in all cases: functional, organism-based
Bacillus subtilis = test: Antimicrobial activity against Bacillus subtilis at 100 ug/disk
Saccharomyces cerevisiae = test: Antimicrobial activity against Saccharomyces cerevisiae at 100 ug/disk
Bacillus cereus = test: Antimicrobial activity against Bacillus cereus at 100 ug/disk

Measured: Activity

CC1(C)C[C@H]2[C@H](O)[C@]3(O)CO[C@]4(O)[C@@H](O)[C@@](C)([C@H]34)[C@H]2C1
inactive: all assays above
